Source: US4738929A, “Purified culture of streptomyces galanosa” (Warner-Lambert Company, priority 1986, dated 1988)
≈ marks a conversion by molar mass, not a printed value. Counter-ions that a name gives are not always drawn.

Tests used:
P388 leukemia cell line = test: In vivo antineoplastic activity against transplanted P388 leukemia in mice; conditions: Days 1-9
Experimental: The in vivo antineoplastic activity of representative compounds of the present invention against the transplanted P388 leukemia cell line in mice was determined in accordance with the protocol given in Geran et al, cited above. The mice were infected intraperitoneally on Day 0 and then administered the indicated doses of the test compounds on Days 1-9.

[1] = system: Escherichia coli (PD-04863); test: Microtiter dilution MIC, Escherichia coli (PD-04863); format: cell-based; conditions: Mueller-Hinton broth, 37° C., 16-24 hours, read-out: Minimal Inhibitory Concentration
Experimental: (§1) The compounds of the present invention and their pharmaceutically acceptable salts are useful as antimicrobial agents. The antimicrobial activity of the representative examples of compounds in accordance with the present invention against five species of gram-negative bacteria, seven species of gram-positive bacteria, four species of yeast, and two species of fungi were determined using the microtiter dilution technique. This method is described by T. B. Conrath, "Handbook of Microtiter Procedures," Dynatech Corp., Cambridge, Mass., USA (1972); and T. L. Gavan et al, "Microdilution Test Procedures," in Manual of Clinical Microbiology, E. H. Lennette, Ed., American Soc. for Microbiol., Washington, D.C., U.S.A. (1980).
(§2) Each agent is suspended in a nonaqueous solvent for several minutes to sterilize the compound or, if the compound is completely soluble in water, the aqueous solution is sterilized by passage through a 0.2-0.45 micrometer membrane filter.
(§3) Each well of a sterile 96-well microdilution tray is filled under aseptic conditions with 0.1 ml of Mueller-Hinton broth (for antibacterial tests), or yeast extract-peptone-dextrose or buffered supplemented yeast nitrogen base (for tests with yeasts or fungi).
(§4) […] of the test compound solution is added to each of the eight wells in the first row of the tray. A microdilutor apparatus is used to simultaneously mix the contents of these wells and to transfer aliquots to each succeeding row of cells to obtain a range of serially diluted solutions. The last row of wells is untreated and serves as a control.
(§5) Each well containing broth and test compound is inoculated with about ten microliters of inoculum of the test microorganism. One well in the last row of wells (which is free of test compound) is not inoculated and is used as a sterility control The trays are sealed and incubated at 37° C. for 16-24 hours (for bacteria) or at 28° C. for 36-48 hours (yeasts or fungi). During incubation, the inoculated medium is shaken at 100-140 rpm to increase contact between the microorganism cells and test compounds.
(§6) After the incubation period, each plate is evaluated by determining the lowest concentration of test compound required to inhibit the growth of the microorganism and recorded as a minimal inhibitory concentration (MIC).

Salmonella typhimurium = test: Microtiter dilution MIC, Salmonella typhimurium; format: cell-based; conditions: Salmonella enterica, Mueller-Hinton broth, 37° C., 16-24 hours, read-out: Minimal Inhibitory Concentration
Experimental: as §1, §2, §3, §4, §5, §6

Alcaligenes viscolactis = test: Microtiter dilution MIC, Alcaligenes viscolactis; format: cell-based; conditions: Mueller-Hinton broth, 37° C., 16-24 hours, read-out: Minimal Inhibitory Concentration
Experimental: as §1, §2, §3, §4, §5, §6

Branhamella catarrhalis = test: Microtiter dilution MIC, Branhamella catarrhalis; format: cell-based; conditions: Moraxella catarrhalis; Mueller-Hinton broth, 37° C., 16-24 hours; read-out: Minimal Inhibitory Concentration
Experimental: as §1, §2, §3, §4, §5, §6

Pseudomonas aeruginosa = test: Microtiter dilution MIC, Pseudomonas aeruginosa; format: cell-based; conditions: Mueller-Hinton broth, 37° C., 16-24 hours, read-out: Minimal Inhibitory Concentration
Experimental: as §1, §2, §3, §4, §5, §6

Micrococcus luteus = test: Microtiter dilution MIC, Micrococcus luteus; format: cell-based; conditions: Mueller-Hinton broth, 37° C., 16-24 hours, read-out: Minimal Inhibitory Concentration
Experimental: as §1, §2, §3, §4, §5, §6

Staphylococcus aureus = test: Microtiter dilution MIC, Staphylococcus aureus; format: cell-based; conditions: Mueller-Hinton broth, 37° C., 16-24 hours, read-out: Minimal Inhibitory Concentration
Experimental: as §1, §2, §3, §4, §5, §6

Streptococcus pyogenes = test: Microtiter dilution MIC, Streptococcus pyogenes; format: cell-based; conditions: Mueller-Hinton broth, 37° C., 16-24 hours, read-out: Minimal Inhibitory Concentration
Experimental: as §1, §2, §3, §4, §5, §6

Streptococcus pneumoniae = test: Microtiter dilution MIC, Streptococcus pneumoniae; format: cell-based; conditions: Mueller-Hinton broth, 37° C., 16-24 hours, read-out: Minimal Inhibitory Concentration
Experimental: as §1, §2, §3, §4, §5, §6

Streptococcus faecalis = test: Microtiter dilution MIC, Streptococcus faecalis; format: cell-based; conditions: Enterococcus faecalis; Mueller-Hinton broth, 37° C., 16-24 hours; read-out: Minimal Inhibitory Concentration
Experimental: as §1, §2, §3, §4, §5, §6

Bacillus cereus = test: Microtiter dilution MIC, Bacillus cereus; format: cell-based; conditions: Mueller-Hinton broth, 37° C., 16-24 hours, read-out: Minimal Inhibitory Concentration
Experimental: as §1, §2, §3, §4, §5, §6

Bacillus megaterium = test: Microtiter dilution MIC, Bacillus megaterium; format: cell-based; conditions: Priestia megaterium; Mueller-Hinton broth, 37° C., 16-24 hours; read-out: Minimal Inhibitory Concentration
Experimental: as §1, §2, §3, §4, §5, §6

Saccharomyces cerevisiae = test: Microtiter dilution MIC, Saccharomyces cerevisiae; format: cell-based; conditions: yeasts or fungi, 28° C., 36-48 hours, read-out: Minimal Inhibitory Concentration
Experimental: as §1, §2, §3, §4, §5, §6

[2] = system: Schizosaccharomyces pombe; test: Microtiter dilution MIC, Schizosaccharomyces pombe; format: cell-based; conditions: yeasts or fungi, 28° C., 36-48 hours, read-out: Minimal Inhibitory Concentration
Experimental: as §1, §2, §3, §4, §5, §6

Rhodotorula aurantiaca = test: Microtiter dilution MIC, Rhodotorula aurantiaca; format: cell-based; conditions: Buckleyzyma aurantiaca; yeasts or fungi, 28° C., 36-48 hours; read-out: Minimal Inhibitory Concentration
Experimental: as §1, §2, §3, §4, §5, §6

Torulopsis albida = test: Microtiter dilution MIC, Torulopsis albida; format: cell-based; conditions: Naganishia albida; yeasts or fungi, 28° C., 36-48 hours; read-out: Minimal Inhibitory Concentration
Experimental: as §1, §2, §3, §4, §5, §6

Mucor paraciticus = test: Microtiter dilution MIC, Mucor paraciticus; format: cell-based; conditions: yeasts or fungi, 28° C., 36-48 hours, read-out: Minimal Inhibitory Concentration
Experimental: as §1, §2, §3, §4, §5, §6

Rhizopus japonicus = test: Microtiter dilution MIC, Rhizopus japonicus; format: cell-based; conditions: yeasts or fungi, 28° C., 36-48 hours, read-out: Minimal Inhibitory Concentration
Experimental: as §1, §2, §3, §4, §5, §6

[3] = system: L1210 murine leukemia cell line; test: Cytotoxic activity against L1210 murine leukemia in vitro; format: cell-based; conditions: Mus musculus, 50% inhibition of growth, duplicate tests
Experimental: The antineoplastic activities of representative compounds of the present invention against the L1210 murine leukemia cell line in vitro were determined using the methods detailed by R. I. Geran et al, "Protocols for Screening Chemical Agents and Natural Products Against Animal Tumors and Other Biological Systems," 3rd Edition, Cancer Chemotherapy Reports, Part 3, Vol. 3, pages 1-87 (1972) which is incorporated herein by reference.
The IC50 values are the concentration of compound required to produce 50% inhibition of growth of the cell line.

Row | Compound | MIC [1] [µg/mL] | MIC (Salmonella typhimurium) [µg/mL] | MIC (Alcaligenes viscolactis) [µg/mL] | MIC (Branhamella catarrhalis) [µg/mL] | MIC (Pseudomonas aeruginosa) [µg/mL] | MIC (Micrococcus luteus) [µg/mL] | MIC (Staphylococcus aureus) [µg/mL] | MIC (Streptococcus pyogenes) [µg/mL] | MIC (Streptococcus pneumoniae) [µg/mL] | MIC (Streptococcus faecalis) [µg/mL] | MIC (Bacillus cereus) [µg/mL] | MIC (Bacillus megaterium) [µg/mL] | MIC (Saccharomyces cerevisiae) [µg/mL] | MIC [2] [µg/mL] | MIC (Rhodotorula aurantiaca) [µg/mL] | MIC (Torulopsis albida) [µg/mL] | MIC (Mucor paraciticus) [µg/mL] | MIC (Rhizopus japonicus) [µg/mL] | IC50 [3] [µg/mL] | other results
1 | Cc1c(O)c(C=O)c2nc3c(O)ccc(C(=O)NCCN(C)C)c3nc2c1O [Example 9, N-[2-(dimethylamino)ethyl]-6-formyl-4,7,9-trihydroxy-8-methyl-1-phenazinecarboxamide, methanesulfonate salt] | – | – | – | – | – | – | – | – | – | – | – | – | – | – | – | – | – | – | – | % T/C (P388 leukemia cell line; 5 mg/kg/injection): 139%; % T/C (P388 leukemia cell line; 10 mg/kg/injection): 143%; % T/C (P388 leukemia cell line; 20 mg/kg/injection): 144%; % T/C (P388 leukemia cell line; 40 mg/kg/injection): 170%; % T/C (P388 leukemia cell line; 80 mg/kg/injection): 219%
2 | Cc1c(O)c(C=O)c2nc3c(O)ccc(C(=O)O)c3nc2c1O [Example 11, 6-formyl-4,7,9-trihydroxy-8-methyl-1-phenazinecarboxylic acid] | 111 (≈ 353 µM) | 111 (≈ 353 µM) | 12.3 (≈ 39.1 µM) | 12.3 (≈ 39.1 µM) | 1000 (≈ 3180 µM) | 111 (≈ 353 µM) | 37 (≈ 118 µM) | 111 (≈ 353 µM) | 111 (≈ 353 µM) | 111 (≈ 353 µM) | 37 (≈ 118 µM) | 111 (≈ 353 µM) | 111 (≈ 353 µM) | 37 (≈ 118 µM) | 12.3 (≈ 39.1 µM) | 111 (≈ 353 µM) | 37 (≈ 118 µM) | 37 (≈ 118 µM) | 3.47 (≈ 11 µM) | –
3 | CN(C)CCNC(=O)c1ccc(O)c2nc3c(C=O)c(O)cc(O)c3nc12 [Example 14, N-[2-(dimethylamino)ethyl]-6-formyl-4,7,9-trihydroxy-1-phenazinecarboxamide] | 111 (≈ 300 µM) | 111 (≈ 300 µM) | 12.3 (≈ 33.2 µM) | 12.3 (≈ 33.2 µM) | 1000 (≈ 2700 µM) | 111 (≈ 300 µM) | 37 (≈ 99.9 µM) | 111 (≈ 300 µM) | 111 (≈ 300 µM) | 111 (≈ 300 µM) | 37 (≈ 99.9 µM) | 111 (≈ 300 µM) | > 1000 | 111 (≈ 300 µM) | 37 (≈ 99.9 µM) | 333 (≈ 899 µM) | 333 (≈ 899 µM) | 333 (≈ 899 µM) | – | –
4 | CCN(CC)CCNC(=O)c1ccc(O)c2nc3c(C=O)c(O)c(C)c(O)c3nc12 [Example 16, N-[2-(diethylamino)ethyl]-6-formyl-4,7,9-trihydroxy-8-methyl-1-phenazinecarboxamide] | 37 (≈ 89.7 µM) | 37 (≈ 89.7 µM) | 12.3 (≈ 29.8 µM) | 12.3 (≈ 29.8 µM) | 333 (≈ 807 µM) | 12.3 (≈ 29.8 µM) | 37 (≈ 89.7 µM) | 37 (≈ 89.7 µM) | 37 (≈ 89.7 µM) | 111 (≈ 269 µM) | 12.3 (≈ 29.8 µM) | 37 (≈ 89.7 µM) | 111 (≈ 269 µM) | 37 (≈ 89.7 µM) | 37 (≈ 89.7 µM) | 37 (≈ 89.7 µM) | 111 (≈ 269 µM) | 111 (≈ 269 µM) | 0.33 (≈ 0.8 µM) | % T/C (P388 leukemia cell line; 19 mg/kg/injection): 136%; % T/C (P388 leukemia cell line; 37.5 mg/kg/injection): 147%; % T/C (P388 leukemia cell line; 75 mg/kg/injection): 166%; % T/C (P388 leukemia cell line; 150 mg/kg/injection): 213%
